{"source": "patent US20260070924A1", "about": "“INDAZOLE MACROCYCLES AND THEIR USE” (BLOSSOMHILL THERAPEUTICS, INC., priority 2022, published 2026)", "experiment_in_all_cases": "Cell proliferation panel (CellTiter-Glo 2.0, 5 days)", "format_in_all_cases": "cell-based", "key": {"JPC3": {"test_system": "JPC3", "settings": "Lung carcinoma", "experimental": "(§1) Cell proliferation assay was carried out in a panel of 108 cell lines. 1000 (attached cells) or 3000 (suspension cells) cells/100 μl per well were seeded in 96 well black plate with a clear bottom (Corning #3904). Compounds were added using Tecan D300e Digital Dispenser in 1:3 titration for 9 doses. Plates were incubated for 5 days at 37° C. and 5% CO2. Cell proliferation was measured using CellTiter-Glo 2.0 luciferase-based ATP detection assay (Promega, Madison, WI) at 50 μl per well following the manufacturer's protocol. Plates were then read on a TECAN Sparks multimode microplate reader. Data was analyzed using GraphPad Prism 9 (GraphPad Software, San Diego, CA) to obtain IC50 values. IC50 values were determined using Prism software (GraphPad Software, San Diego, CA)."}, "HCC827": {"test_system": "HCC827", "settings": "Lung adenocarcinoma NSCLC", "experimental": "as §1"}, "TF-1": {"test_system": "TF-1", "settings": "Erythroleukemia", "experimental": "as §1"}, "PA-1": {"test_system": "PA-1", "settings": "Ovary Teratocarcinoma", "experimental": "as §1"}, "H23": {"test_system": "H23", "settings": "Lung adenocarcinoma NSCLC", "experimental": "as §1"}, "H1573": {"test_system": "H1573", "settings": "Lung adenocarcinoma NSCLC", "experimental": "as §1"}, "KASUMI-3": {"test_system": "KASUMI-3", "settings": "Acute myeloblastic leukemia", "experimental": "as §1"}, "SW480": {"test_system": "SW480", "settings": "Colorectal adenocarcinoma", "experimental": "as §1"}, "A-498": {"test_system": "A-498", "settings": "Kidney carcinoma", "experimental": "as §1"}, "H69": {"test_system": "H69", "settings": "Lung small cell carcinoma", "experimental": "as §1"}, "H1688": {"test_system": "H1688", "settings": "Small cell lung carcinoma", "experimental": "as §1"}, "786-O": {"test_system": "786-O", "settings": "Renal cell adenocarcinoma", "experimental": "as §1"}, "DU4475": {"test_system": "DU4475", "settings": "Breast carcinoma", "experimental": "as §1"}, "KASUMI-1": {"test_system": "KASUMI-1", "settings": "Acute myeloblastic leukemia", "experimental": "as §1"}, "IMR-32": {"test_system": "IMR-32", "settings": "Neuroblastoma", "experimental": "as §1"}, "H1975": {"test_system": "H1975", "settings": "Lung adenocarcinoma NSCLC", "experimental": "as §1"}, "MOLM14": {"test_system": "MOLM14", "settings": "Acute myeloid leukemia", "experimental": "as §1"}, "H1792": {"test_system": "H1792", "settings": "Lung adenocarcinoma NSCLC", "experimental": "as §1"}, "SKNO-1": {"test_system": "SKNO-1", "settings": "Acute myeloid leukemia", "experimental": "as §1"}, "LNCaP": {"test_system": "LNCaP", "settings": "Prostate carcinoma", "experimental": "as §1"}, "H526": {"test_system": "H526", "settings": "Small cell lung cancer", "experimental": "as §1"}, "AU565": {"test_system": "AU565", "settings": "Breast adenocarcinoma", "experimental": "as §1"}, "MV-4-11": {"test_system": "MV-4-11", "settings": "Biphenotypic B-Myelomonocytic Leukemia", "experimental": "as §1"}, "HCT116": {"test_system": "HCT116", "settings": "Colorectal adenocarcinoma", "experimental": "as §1"}, "MCF7": {"test_system": "MCF7", "settings": "Breast adenocarcinoma", "experimental": "as §1"}, "SNU-16": {"test_system": "SNU-16", "settings": "Gastric carcinoma", "experimental": "as §1"}, "SKOV3": {"test_system": "SKOV3", "settings": "Ovarian adenocarcinoma", "experimental": "as §1"}, "22RV1": {"test_system": "22RV1", "settings": "Prostate carcinoma", "experimental": "as §1"}, "H446": {"test_system": "H446", "settings": "Small cell lung carcinoma", "experimental": "as §1"}, "COR-L23": {"test_system": "COR-L23", "settings": "Large cell lung carcinoma", "experimental": "as §1"}, "H358": {"test_system": "H358", "settings": "Bronchioalveolar carcinoma NSCLC", "experimental": "as §1"}, "SUIT-2": {"test_system": "SUIT-2", "settings": "Pancreatic tubular adenocarcinoma", "experimental": "as §1"}, "SU-DHL-6": {"test_system": "SU-DHL-6", "settings": "Diffuse Large B Cell Lymphoma", "experimental": "as §1"}, "THP-1": {"test_system": "THP-1", "settings": "Acute monocytic leukemia", "experimental": "as §1"}, "HNT-34": {"test_system": "HNT-34", "settings": "Acute myeloid leukemia", "experimental": "as §1"}, "COLO320": {"test_system": "COLO320", "settings": "Colorectal adenocarcinoma", "experimental": "as §1"}, "SW1990": {"test_system": "SW1990", "settings": "Pancreatic adenocarcinoma", "experimental": "as §1"}, "MIAPaCa-2": {"test_system": "MIAPaCa-2", "settings": "Pancreatic carcinoma", "experimental": "as §1"}, "KG-1": {"test_system": "KG-1", "settings": "Acute myelogenous leukemia", "experimental": "as §1"}, "PANC0203": {"test_system": "PANC0203", "settings": "Pancreatic adenocarcinoma", "experimental": "as §1"}, "U138-MG": {"test_system": "U138-MG", "settings": "Brain glioblastaoma", "experimental": "as §1"}, "HCC1806": {"test_system": "HCC1806", "settings": "Breast carcinoma, TNBC", "experimental": "as §1"}, "KP-N-RT-BM-1": {"test_system": "KP-N-RT-BM-1", "settings": "Neuroblastoma", "experimental": "as §1"}, "HGC-27": {"test_system": "HGC-27", "settings": "Gastric carcinoma", "experimental": "as §1"}, "T47D": {"test_system": "T47D", "settings": "Mammary gland ductal carcinoma", "experimental": "as §1"}, "HPAC": {"test_system": "HPAC", "settings": "Pancreatic carcinoma", "experimental": "as §1"}}}
{"compound": "CCc1nn(C)c2c1/C=C/c1n[nH]c3ccc(cc13)-c1cnn(C)c1OCCN(C)C2=O", "note": "[Ex. 6, (17E)-16-ethyl-8,12,14-trimethyl-2,11,12,14-tetrahydro-8H-3,5-ethenotripyrazolo[3,4-f:3′,4′-j:4″,3″-n][1,4]oxazacyclopentadecin-13(10H)-one]", "values": [{"measurement": "IC50", "setting": "JPC3", "result": 0.171, "unit": "µM"}, {"measurement": "IC50", "setting": "HCC827", "result": 0.0709, "unit": "µM"}, {"measurement": "IC50", "setting": "TF-1", "result": 0.0576, "unit": "µM"}, {"measurement": "IC50", "setting": "PA-1", "result": 0.048, "unit": "µM"}, {"measurement": "IC50", "setting": "H23", "result": 0.0888, "unit": "µM"}, {"measurement": "IC50", "setting": "H1573", "result": 0.0806, "unit": "µM"}, {"measurement": "IC50", "setting": "KASUMI-3", "result": 0.0433, "unit": "µM"}, {"measurement": "IC50", "setting": "SW480", "result": 0.0905, "unit": "µM"}, {"measurement": "IC50", "setting": "A-498", "result": 0.169, "unit": "µM"}, {"measurement": "IC50", "setting": "H69", "result": 0.1, "unit": "µM"}, {"measurement": "IC50", "setting": "H1688", "result": 0.116, "unit": "µM"}, {"measurement": "IC50", "setting": "786-O", "result": 0.138, "unit": "µM"}, {"measurement": "IC50", "setting": "DU4475", "result": 0.0614, "unit": "µM"}, {"measurement": "IC50", "setting": "KASUMI-1", "result": 0.014, "unit": "µM"}, {"measurement": "IC50", "setting": "IMR-32", "result": 0.0112, "unit": "µM"}, {"measurement": "IC50", "setting": "H1975", "result": 0.0872, "unit": "µM"}, {"measurement": "IC50", "setting": "MOLM14", "result": 0.00226, "unit": "µM"}, {"measurement": "IC50", "setting": "H1792", "result": 0.121, "unit": "µM"}, {"measurement": "IC50", "setting": "SKNO-1", "result": 0.0233, "unit": "µM"}, {"measurement": "IC50", "setting": "LNCaP", "result": 0.136, "unit": "µM"}, {"measurement": "IC50", "setting": "H526", "result": 0.0755, "unit": "µM"}, {"measurement": "IC50", "setting": "AU565", "result": 0.0255, "unit": "µM"}, {"measurement": "IC50", "setting": "MV-4-11", "result": 0.00068, "unit": "µM"}, {"measurement": "IC50", "setting": "HCT116", "result": 0.0602, "unit": "µM"}, {"measurement": "IC50", "setting": "MCF7", "result": 0.0759, "unit": "µM"}, {"measurement": "IC50", "setting": "SNU-16", "result": 0.0905, "unit": "µM"}, {"measurement": "IC50", "setting": "SKOV3", "result": 0.117, "unit": "µM"}, {"measurement": "IC50", "setting": "22RV1", "result": 0.0732, "unit": "µM"}, {"measurement": "IC50", "setting": "H446", "result": 0.112, "unit": "µM"}, {"measurement": "IC50", "setting": "COR-L23", "result": 0.0984, "unit": "µM"}, {"measurement": "IC50", "setting": "H358", "result": 0.148, "unit": "µM"}, {"measurement": "IC50", "setting": "SUIT-2", "result": 0.393, "unit": "µM"}, {"measurement": "IC50", "setting": "SU-DHL-6", "result": 0.0284, "unit": "µM"}, {"measurement": "IC50", "setting": "THP-1", "result": 0.107, "unit": "µM"}, {"measurement": "IC50", "setting": "HNT-34", "result": 0.0223, "unit": "µM"}, {"measurement": "IC50", "setting": "COLO320", "result": 0.0852, "unit": "µM"}, {"measurement": "IC50", "setting": "SW1990", "result": 0.104, "unit": "µM"}, {"measurement": "IC50", "setting": "MIAPaCa-2", "result": 0.0532, "unit": "µM"}, {"measurement": "IC50", "setting": "KG-1", "result": 0.153, "unit": "µM"}, {"measurement": "IC50", "setting": "PANC0203", "result": 0.126, "unit": "µM"}, {"measurement": "IC50", "setting": "U138-MG", "result": 0.17, "unit": "µM"}, {"measurement": "IC50", "setting": "HCC1806", "result": 0.0859, "unit": "µM"}, {"measurement": "IC50", "setting": "KP-N-RT-BM-1", "result": 0.0151, "unit": "µM"}, {"measurement": "IC50", "setting": "HGC-27", "result": 0.1, "unit": "µM"}, {"measurement": "IC50", "setting": "T47D", "result": 0.114, "unit": "µM"}, {"measurement": "IC50", "setting": "HPAC", "result": 0.0791, "unit": "µM"}]}
